The structures appear in SMILES notation. Like-named read-outs stand apart in the source and are kept apart here.

The target in test [1] is T1, ATR kinase (Homo sapiens, UniProt Q13535).
T1 construct: purchased Eurofins 14-953
Kind of test: Inhibitory effect on ATR kinase activity (Caliper mobility shift, FAM-labeled RAD17 peptide substrate). The class given is biochemical. As for the experimental part:
Test Example 1: Inhibitory effect of the compounds of the present disclosure on ATR kinase activity
Test compounds to be tested were serially diluted with DMSO (maximum concentration 1 µM, 10 concentrations with 3-fold serial dilution) and added to the wells of a 384-well reaction plate (Corning, #4512). 1 nM ATR kinase (Eurofins, #14-953), 5 mM substrate (FAM-labeled RAD17 peptide, FAM-ASELPASQPQPFSAKKK), 5 mM ATP and the compounds with corresponding concentrations reacted in a kinase reaction solution (50 mM HEPES, pH 7.5; 0.0015% Brij-35; 10 mM MnCl2, total volume of 20 µL) at 28°C for 3 hours. The reaction was terminated by adding 30 µL of stop solution (100 mM HEPES, pH 7.5; 0.015% Brij-35; 0.2% Coating Reagent #3, PerkinElmer; 50 mM EDTA). The reaction plate was placed on a Caliper instrument (PerkinElmer) for testing. The relative inhibitory activity of each compound concentration group was calculated using the following formula: % Inhibition = (Conversion rate of the blank control group without compound added - Conversion rate of the test compound group) / (Conversion rate of the blank control group - […]). The IC50 values were calculated using GraphPad analysis and fitted. […] Table 1. Inhibitory effect (IC50) of compounds on ATR kinase activity.

Test [2] relates to LoVo cells. Nature of the test: LoVo cell proliferation assay (CellTiter-Glo). The following applies: Homo sapiens, LoVo, 120 h, maximum concentration 10 µM, 9 concentrations. The format is cell-based. The procedure, abridged: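 LoVo cells, 2,000 per well, were treated after overnight attachment with 9-point 3-fold dilutions from 10 µM for 5 days at 37 °C. Viability was read by CellTiter-Glo luminescence. Inhibition % was taken relative to DMSO control, and IC50 came from the concentration–inhibition curve.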
A general note: In ATP-based viability assays light output follows the ATP content of the culture.

Where [3] appears, read: 1 nM ATR kinase (Eurofins), 28°C for 3 hours, maximum concentration 1 µM, 10 concentrations, read-out: ATR kinase IC50.
Where [4] appears, read: LoVo cells, 2,000 cells per well, 5 days incubation, CellTiter-Glo, read-out: LoVo IC50.
Where [5] appears, read: read-out: ATR kinase IC50, 1 nM ATR kinase (Eurofins), 28°C for 3 hours, maximum concentration 1 µM, 10 concentrations.
Where [6] appears, read: read-out: LoVo IC50 (nM), LoVo cells, 2,000 cells per well, 5 days incubation, CellTiter-Glo.

T1 sequence (Q13535 whole entry): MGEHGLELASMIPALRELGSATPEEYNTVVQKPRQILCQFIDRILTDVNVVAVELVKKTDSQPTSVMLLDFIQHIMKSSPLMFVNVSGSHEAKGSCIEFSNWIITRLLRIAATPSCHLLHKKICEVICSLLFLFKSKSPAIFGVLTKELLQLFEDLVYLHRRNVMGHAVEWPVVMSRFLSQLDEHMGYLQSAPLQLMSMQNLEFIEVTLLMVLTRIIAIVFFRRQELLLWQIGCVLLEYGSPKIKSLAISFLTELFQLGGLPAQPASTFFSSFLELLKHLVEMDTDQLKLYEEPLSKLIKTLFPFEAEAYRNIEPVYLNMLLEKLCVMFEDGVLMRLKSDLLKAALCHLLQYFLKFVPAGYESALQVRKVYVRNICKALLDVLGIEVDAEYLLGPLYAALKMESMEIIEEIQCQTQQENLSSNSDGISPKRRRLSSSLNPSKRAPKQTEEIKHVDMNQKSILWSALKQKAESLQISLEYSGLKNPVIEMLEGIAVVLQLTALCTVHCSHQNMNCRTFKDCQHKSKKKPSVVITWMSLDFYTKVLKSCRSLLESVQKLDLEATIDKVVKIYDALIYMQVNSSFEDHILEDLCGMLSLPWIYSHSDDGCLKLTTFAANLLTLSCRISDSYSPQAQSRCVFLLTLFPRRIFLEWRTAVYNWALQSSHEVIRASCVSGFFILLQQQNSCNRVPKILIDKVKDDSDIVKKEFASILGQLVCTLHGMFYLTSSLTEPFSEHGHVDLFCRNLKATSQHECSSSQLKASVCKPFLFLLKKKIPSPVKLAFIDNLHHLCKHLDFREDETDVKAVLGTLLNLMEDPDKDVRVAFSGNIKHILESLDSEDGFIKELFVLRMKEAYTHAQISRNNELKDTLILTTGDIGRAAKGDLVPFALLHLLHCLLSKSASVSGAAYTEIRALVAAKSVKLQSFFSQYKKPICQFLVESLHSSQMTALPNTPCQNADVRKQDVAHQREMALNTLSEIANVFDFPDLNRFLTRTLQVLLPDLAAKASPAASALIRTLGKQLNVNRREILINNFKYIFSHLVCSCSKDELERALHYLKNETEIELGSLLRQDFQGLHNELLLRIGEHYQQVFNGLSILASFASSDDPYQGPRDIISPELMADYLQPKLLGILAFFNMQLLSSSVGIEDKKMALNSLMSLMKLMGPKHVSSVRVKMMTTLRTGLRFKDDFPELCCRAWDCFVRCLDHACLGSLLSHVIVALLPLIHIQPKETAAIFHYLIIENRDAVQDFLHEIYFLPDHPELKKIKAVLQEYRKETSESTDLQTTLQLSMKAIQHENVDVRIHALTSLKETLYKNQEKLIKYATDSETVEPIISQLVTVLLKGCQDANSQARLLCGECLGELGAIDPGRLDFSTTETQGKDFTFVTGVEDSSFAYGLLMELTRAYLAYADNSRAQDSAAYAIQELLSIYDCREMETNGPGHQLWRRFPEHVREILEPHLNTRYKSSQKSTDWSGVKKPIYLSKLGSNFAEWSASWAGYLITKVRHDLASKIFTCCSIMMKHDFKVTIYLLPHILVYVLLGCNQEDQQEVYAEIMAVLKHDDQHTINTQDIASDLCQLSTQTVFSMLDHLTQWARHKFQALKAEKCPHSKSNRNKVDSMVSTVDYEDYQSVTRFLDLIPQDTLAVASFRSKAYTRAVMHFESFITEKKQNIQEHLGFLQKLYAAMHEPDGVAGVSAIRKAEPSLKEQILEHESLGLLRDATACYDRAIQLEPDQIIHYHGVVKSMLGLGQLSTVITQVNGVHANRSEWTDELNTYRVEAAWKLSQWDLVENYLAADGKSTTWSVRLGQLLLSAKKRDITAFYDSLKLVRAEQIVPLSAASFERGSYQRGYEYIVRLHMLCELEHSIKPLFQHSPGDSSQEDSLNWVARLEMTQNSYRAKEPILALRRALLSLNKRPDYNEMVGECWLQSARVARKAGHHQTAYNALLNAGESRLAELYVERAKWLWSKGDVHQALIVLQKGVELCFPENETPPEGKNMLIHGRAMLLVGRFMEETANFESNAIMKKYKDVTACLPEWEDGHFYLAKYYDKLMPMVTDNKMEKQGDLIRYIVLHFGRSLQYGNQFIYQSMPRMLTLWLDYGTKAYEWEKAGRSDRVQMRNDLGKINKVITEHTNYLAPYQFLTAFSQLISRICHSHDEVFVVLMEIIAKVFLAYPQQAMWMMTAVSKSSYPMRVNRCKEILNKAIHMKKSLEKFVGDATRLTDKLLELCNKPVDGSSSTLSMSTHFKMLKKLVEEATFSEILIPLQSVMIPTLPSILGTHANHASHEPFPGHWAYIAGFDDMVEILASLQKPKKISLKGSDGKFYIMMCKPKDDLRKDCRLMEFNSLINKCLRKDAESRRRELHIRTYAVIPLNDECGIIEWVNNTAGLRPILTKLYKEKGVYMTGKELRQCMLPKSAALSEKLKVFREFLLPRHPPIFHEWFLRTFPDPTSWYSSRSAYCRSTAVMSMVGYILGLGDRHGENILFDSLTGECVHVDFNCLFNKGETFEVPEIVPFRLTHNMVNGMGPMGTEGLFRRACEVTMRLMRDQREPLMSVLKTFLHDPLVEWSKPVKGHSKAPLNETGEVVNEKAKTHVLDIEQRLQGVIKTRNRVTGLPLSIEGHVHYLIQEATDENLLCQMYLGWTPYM
T1 sequence (Q8WXE1 whole entry partner): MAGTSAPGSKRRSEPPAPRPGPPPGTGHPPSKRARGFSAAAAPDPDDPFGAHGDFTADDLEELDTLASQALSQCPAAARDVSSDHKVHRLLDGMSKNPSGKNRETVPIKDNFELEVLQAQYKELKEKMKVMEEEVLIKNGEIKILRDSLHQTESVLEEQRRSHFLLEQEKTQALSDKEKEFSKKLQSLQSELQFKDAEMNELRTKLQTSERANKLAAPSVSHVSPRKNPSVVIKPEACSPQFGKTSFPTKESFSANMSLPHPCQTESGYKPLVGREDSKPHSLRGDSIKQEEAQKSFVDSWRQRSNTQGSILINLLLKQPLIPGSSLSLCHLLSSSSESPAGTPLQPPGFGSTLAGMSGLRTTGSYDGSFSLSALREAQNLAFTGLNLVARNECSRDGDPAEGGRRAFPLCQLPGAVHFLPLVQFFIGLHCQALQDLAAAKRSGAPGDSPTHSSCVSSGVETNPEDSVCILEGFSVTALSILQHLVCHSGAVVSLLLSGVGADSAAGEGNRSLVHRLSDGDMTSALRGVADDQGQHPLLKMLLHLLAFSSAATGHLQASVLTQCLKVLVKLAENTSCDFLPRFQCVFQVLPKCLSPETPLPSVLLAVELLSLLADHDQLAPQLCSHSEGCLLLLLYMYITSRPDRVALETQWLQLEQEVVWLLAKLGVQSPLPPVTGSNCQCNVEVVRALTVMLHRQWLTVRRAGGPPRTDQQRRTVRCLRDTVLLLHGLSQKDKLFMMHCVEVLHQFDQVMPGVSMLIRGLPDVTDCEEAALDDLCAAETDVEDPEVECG

With `C[C@@H]1COCCN1c1cc2c3c(nn(-c4cc[nH]n4)c3n1)CCN(C(=O)C1CC(F)(F)C1)C2` [Compound 9, (R)-(3,3-difluorocyclobutyl)(4-(3-methylmorpholino)-2-(1H-pyrazol-3-yl)-2,6,8,9-tetrahydro-7H-1,2,3,7-tetraazabenzo[cd]azulene-7-yl)methanone], the IC50 in test [1] (setting [3]) was 10 to 100 nM; in test [2] (setting [4]), over 1000 nM.
On to `C[C@@H]1COCCN1c1cc2c3c(nn(-c4cc[nH]n4)c3n1)CCN(C(=O)CC(F)(F)F)C2` [Compound 10, (R)-3,3,3-trifluoro-1-(4-(3-methylmorpholino)-2-(1H-pyrazol-3-yl)-2,6,8,9-tetrahydro-7H-1,2,3,7-tetraazabenzo[cd]azulen-7-yl)propan-1-one], for which the IC50 was 10 to 100 nM in test [1] (setting [3]) and over 1000 nM in test [2] (setting [4]).
For the molecule `C[C@@H]1COCCN1c1cc2c3c(nn(-c4cc[nH]n4)c3n1)CCN(C1CC3(CC3)C1)C2` [Compound 11], the IC50 in test [1] (setting [3]) lay within 10 to 100 nM; in test [2] (setting [4]), 100 to 1000 nM.
For `CC1COCC1N1CCc2nn(-c3cc[nH]n3)c3nc(N4CCOC[C@H]4C)cc(c23)C1` (stereo partly drawn) [Compound 12, (3R)-3-methyl-4-(7-(4-methyltetrahydrofuran-3-yl)-2-(1H-pyrazol-3-yl)-6,7,8,9-tetrahydro-2H-1 ,2,3,7-tetraazabenzo[cd]azulen-4-yl)morpholine], the IC50 in test [1] (setting [3]) is 10 to 100 nM; in test [2] (setting [4]), 100 to 1000 nM.
In the same order, the values of `C[C@@H]1COCCN1c1cc2c3c(nn(-c4cc[nH]n4)c3n1)CCN(CC(F)(F)F)C2` [Compound 14, (R)-4-(2-(1H-pyrazol-3-yl)-7-(2,2,2-trifluoroethyl)-6,7,8,9-tetrahydro-2H-1,2,3,7-tetraazabenzo[cd]azulen-4-yl)-3-methylmorpholine] are 10 to 100 nM and 100 to 1000 nM.
Regarding `CC1CC(C(=O)N2CCc3nn(-c4cc[nH]n4)c4nc(N5CCOC[C@H]5C)cc(c34)C2)C1` (stereo partly drawn) [Compound 15, (R)-(3-methylcyclobutyl)(4-(3-methylmorpholino)-2-(1H-pyrazol-3-yl)-2,6,8,9-tetrahydro-7H-1,2,3,7-tetraazabenzo[cd]azulene-7-yl)methanone], the IC50 in test [1] (setting [3]) lay in the range of 10 to 100 nM; in test [2] (setting [4]), 100 to 1000 nM.
As to `CC(C(=O)N1CCc2nn(-c3cc[nH]n3)c3nc(N4CCOC[C@H]4C)cc(c23)C1)C(F)(F)F` (stereo partly drawn) [Compound 16, 3,3,3-trifluoro-2-methyl-1-(4-((R)-3-methylmorpholinyl)-2-(1H-pyrazol-3-yl)-2,6,8,9-tetrahydro-7H-1,2,3,7-tetraazabenzo[cd]azulen-7-yl)propan-1-one], the IC50 in test [1] (setting [5]) is under 10 nM; in test [2] (setting [6]), 100 to 1000 nM.
`C[C@@H]1COCCN1c1cc2c3c(nn(-c4cc[nH]n4)c3n1)CCN(c1ccccc1)C2` [Compound 17, (R)-3-methyl-4-(7-phenyl-2-(1H-pyrazol-3-yl)-6,7,8,9-tetrahydro-2H-1,2,3,7-tetraazabenzo[cd]azulen-4-yl)morpholine]: the values for the IC50 in test [1] (setting [3]) and in test [2] (setting [4]) were 10 to 100 nM and over 1000 nM, respectively.
Regarding `C[C@@H]1COCCN1c1cc2c3c(nn(-c4cc[nH]n4)c3n1)CCN(C(=O)C1(C(F)(F)F)CC1)C2` [Compound 18, (R)-(4-(3-methylmorpholinyl)-2-(1H-pyrazol-3-yl)-2,6,8,9-tetrahydro-7H-1,2,3,7-tetraazabenzo[cd]azulen-7-yl)(1-(trifluoromethyl)cyclopropyl)methanone], the IC50 in test [1] (setting [5]) is under 10 nM; in test [2] (setting [6]), under 100 nM.
For the molecule `C[C@@H]1COCCN1c1cc2c3c(nn(-c4cc[nH]n4)c3n1)CCN(C(=O)C1CC1(F)F)C2` (stereo partly drawn) [Compound 19, (2,2-difluorocyclopropyl)(4-((R)-3-methylmorpholino)-2-(1H-pyrazol-3-yl)-2,6,8,9-tetrahydro-7H-1,2,3,7-tetraazabenzo[cd]azulene-7-yl)methanone], the IC50 in test [1] (setting [3]) is under 10 nM; in test [2] (setting [4]), 100 to 1000 nM.

The values above are taken from patent EP4692090A1 (Shanghai Fosun Pharmaceutical (Group) Co., Ltd., priority 2023, dated 2024).
